# The source made the active and inactive calls. No cut-off for these calls is given here.
# How the values were obtained:
# [1] = biological target: T1, DNA topoisomerase 1 (Homo sapiens) (UniProt P11387); test: Poisoning activity at topoisomerase 1 in human MCF7 cells at 10 uM after 12 hrs by immunoband depletion assay; assay type: cell-based
# T1 sequence (whole entry): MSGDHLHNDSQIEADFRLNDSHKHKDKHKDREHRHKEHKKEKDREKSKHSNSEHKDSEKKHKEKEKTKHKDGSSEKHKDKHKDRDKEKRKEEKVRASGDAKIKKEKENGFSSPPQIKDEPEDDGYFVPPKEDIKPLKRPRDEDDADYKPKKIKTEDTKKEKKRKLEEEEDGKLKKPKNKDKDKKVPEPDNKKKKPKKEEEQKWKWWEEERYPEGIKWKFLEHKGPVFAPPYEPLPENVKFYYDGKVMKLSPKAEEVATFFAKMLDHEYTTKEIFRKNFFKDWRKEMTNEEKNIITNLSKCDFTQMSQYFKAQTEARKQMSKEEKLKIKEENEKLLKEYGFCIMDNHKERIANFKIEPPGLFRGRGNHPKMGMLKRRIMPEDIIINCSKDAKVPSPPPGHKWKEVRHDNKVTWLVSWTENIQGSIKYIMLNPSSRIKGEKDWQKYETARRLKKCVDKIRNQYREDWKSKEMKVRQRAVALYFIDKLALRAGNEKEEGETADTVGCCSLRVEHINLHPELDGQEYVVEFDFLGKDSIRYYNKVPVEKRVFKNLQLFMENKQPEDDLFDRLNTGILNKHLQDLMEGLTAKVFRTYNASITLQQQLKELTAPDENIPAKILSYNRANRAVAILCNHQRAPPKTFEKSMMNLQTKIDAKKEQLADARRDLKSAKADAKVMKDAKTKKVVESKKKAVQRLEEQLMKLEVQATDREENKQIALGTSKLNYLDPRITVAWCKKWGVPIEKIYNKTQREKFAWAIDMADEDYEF
# [2] = biological target: DNA topoisomerase 2-alpha (Homo sapiens) (UniProt P11388); test: Poisoning activity at topoisomerase 2 in human MCF7 cells at 10 uM after 12 hrs by immunoband depletion assay; assay type: cell-based
# Chain of DNA topoisomerase 2-alpha (Homo sapiens) (P11388 whole entry): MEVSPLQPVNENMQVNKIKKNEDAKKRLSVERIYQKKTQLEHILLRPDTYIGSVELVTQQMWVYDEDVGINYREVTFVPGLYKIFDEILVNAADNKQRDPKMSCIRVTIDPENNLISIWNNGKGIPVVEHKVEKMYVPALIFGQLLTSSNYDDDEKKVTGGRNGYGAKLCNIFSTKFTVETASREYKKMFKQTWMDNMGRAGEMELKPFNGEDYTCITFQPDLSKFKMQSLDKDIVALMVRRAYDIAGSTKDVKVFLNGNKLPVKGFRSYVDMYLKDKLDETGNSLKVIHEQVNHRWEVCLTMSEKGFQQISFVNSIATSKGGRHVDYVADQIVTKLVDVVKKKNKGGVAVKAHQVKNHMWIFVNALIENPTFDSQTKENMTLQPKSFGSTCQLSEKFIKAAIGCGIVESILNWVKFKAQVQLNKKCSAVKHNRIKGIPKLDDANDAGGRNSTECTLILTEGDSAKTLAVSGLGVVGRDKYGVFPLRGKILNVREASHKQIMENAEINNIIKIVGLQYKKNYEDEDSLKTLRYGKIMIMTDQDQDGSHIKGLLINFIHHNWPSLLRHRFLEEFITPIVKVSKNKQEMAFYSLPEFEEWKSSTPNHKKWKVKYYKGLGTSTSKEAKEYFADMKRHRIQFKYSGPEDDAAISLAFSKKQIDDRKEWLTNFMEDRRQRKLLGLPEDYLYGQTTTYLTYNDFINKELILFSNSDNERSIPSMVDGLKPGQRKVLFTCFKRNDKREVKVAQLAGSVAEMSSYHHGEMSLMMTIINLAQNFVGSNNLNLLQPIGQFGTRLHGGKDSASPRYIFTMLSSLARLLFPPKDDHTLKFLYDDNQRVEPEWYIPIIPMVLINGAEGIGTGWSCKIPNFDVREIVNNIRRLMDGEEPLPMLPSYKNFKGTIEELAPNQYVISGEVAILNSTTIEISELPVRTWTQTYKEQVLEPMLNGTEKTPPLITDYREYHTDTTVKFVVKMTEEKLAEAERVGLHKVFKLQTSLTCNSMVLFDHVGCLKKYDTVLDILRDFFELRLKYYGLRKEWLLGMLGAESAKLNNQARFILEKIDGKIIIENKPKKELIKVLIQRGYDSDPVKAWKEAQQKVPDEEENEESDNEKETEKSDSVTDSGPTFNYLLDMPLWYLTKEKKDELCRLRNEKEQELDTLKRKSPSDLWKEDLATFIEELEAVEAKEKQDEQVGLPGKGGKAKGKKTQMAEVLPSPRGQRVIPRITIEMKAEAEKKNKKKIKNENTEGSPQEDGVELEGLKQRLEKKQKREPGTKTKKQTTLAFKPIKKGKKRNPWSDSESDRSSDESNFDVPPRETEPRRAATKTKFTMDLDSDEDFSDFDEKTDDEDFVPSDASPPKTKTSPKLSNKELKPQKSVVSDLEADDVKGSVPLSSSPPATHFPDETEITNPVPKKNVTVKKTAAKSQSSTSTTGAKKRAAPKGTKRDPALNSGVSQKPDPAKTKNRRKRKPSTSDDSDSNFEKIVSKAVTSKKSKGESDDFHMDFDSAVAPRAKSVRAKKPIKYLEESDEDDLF
# MCF7 [3] = test: Induction of mitochondrial membrane depolarization in human MCF7 cells after 24 to 48 hrs by JC-1 staining based FACS assay (reference value: 9.9%); assay type: functional
# MCF7 [4] = test: Induction of mitochondrial membrane depolarization in human MCF7 cells assessed as ratio of red to green fluorescence after 24 to 48 hrs by JC-1 staining based FACS assay (reference value: 9.1); assay type: functional
smiles,measurement,setting,value
CC[C@@]1(O)C(=O)OCc2c1cc1n(c2=O)Cc2cc3ccccc3nc2-1,Activity,[1],Active
COc1cc([C@@H]2c3cc4c(cc3[C@@H](O[C@@H]3O[C@@H]5CO[C@@H](C)O[C@H]5[C@H](O)[C@H]3O)[C@H]3COC(=O)[C@H]23)OCO4)cc(OC)c1O,Activity,[2],Active
N#CC(C#N)=NNc1cccc(Cl)c1 [CARBONYL CYANIDE M-CHLOROPHENYLHYDRAZONE],Activity,MCF7 [3],98.8%
same,Ratio,MCF7 [4],0.014
